Each structure is given as a SMILES string.

One assay concerns the target T1, BRD4 BD1 (Homo sapiens, UniProt O60885).
T1 construct: Protein BRD4 BD1 used in the assay was purchased from Active Motif (cat. 31380); purchased Active Motif 31380
The experiment in a line: HTRF in vitro enzyme activity assay, inhibition of BRD4 BD1 binding to acetylated H4 peptide. The following applies: IC50 values of the compounds against BRD4 BD1 binding; class symbols A/B/C. A digest of the protocol: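 Recombinant human BRD4 BD1 (30 nM final) incubated with compound and biotinylated tetra-acetylated H4(1-21) peptide, 30 min at 37 °C; 5-point 1:5 dilution series, 0.1% DMSO final. HTRF read after 3 h at RT with SA-XL665 and Eu(K)-labelled antibody; IC50 derived.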
The compound `CC1C(=O)N(C)c2ccc(N3C(=O)c4cc(C(=O)N5CCN(C)CC5)ccc4C3c3ccc(F)cc3)nc2N1C1CC1` (single isomer, unassigned) [Example A78-P4, 4-cyclopropyl-6-(1-(4-fluorophenyl)-5-(4-methylpiperazine-1-carbonyl)-3-oxoisoindolin-2-yl)-1,3-dimethyl-3,4-dihydropyrido[2,3-b]pyrazin-2(1H)-one] yielded an IC50 of at most 10 nM. The same measure, in the same setting: the figure for `C[C@@H]1C(=O)N(C)c2cnc(N3C(=O)c4c(cccc4S(C)(=O)=O)C3(O)c3cccnc3)nc2N1C` (stereo partly drawn) [Example A104-P3, (7R)-2-(1-hydroxy-4-(methylsulfonyl)-3-oxo-1-(pyridin-3-yl)isoindolin-2-yl)-5,7,8-trimethyl-7,8-dihydropteridin-6(5H)-one] is at most 10 nM; for `CC1C(=O)N(C)c2ccc(N3C(=O)CCN3c3ccc(Cl)cc3)nc2N1C1CC1` (single isomer, unassigned) [Example A10-P2, 6-(2-(4-chlorophenyl)-5-oxopyrazolidin-1-yl)-4-cyclopropyl-1,3-dimethyl-3,4-dihydropyrido[2,3-b]pyrazin-2(1H)-one] it is 10 to 100 nM; for `CC1C(=O)N(C)c2ccc(N3C(=O)c4c(cccc4C(C)(C)O)C3c3ccc(F)cc3)nc2N1C1CC1` (single isomer, unassigned) [Example A79-P4, 4-cyclopropyl-6-(1-(4-fluorophenyl)-4-(2-hydroxyprop-2-yl)-3-oxoisoindolin-2-yl)-1,3-dimethyl-3,4-dihydropyrido[2,3-b]pyrazin-2(1H)-one] it is at most 10 nM. For `CC1C(=O)N(C)c2ccc(N3C(=O)c4c(C(=O)N5CCN(C)CC5)cccc4C3c3ccc(F)cc3)nc2N1C1CC1` (single isomer, unassigned) [Example A82-P4], the IC50 is at most 10 nM. Consider `C[C@@H]1C(=O)N(C)c2ccc(N3C(=O)CCC3c3ccccc3)nc2N1C1CCOCC1` (single isomer, unassigned) [Example A5-P1], for which the IC50 was at most 10 nM. Compound `CC1C(=O)N(C)c2ccc(N3C(=O)CCC3c3ccc(F)cc3)nc2N1C1CC1` (single isomer, unassigned) [Example A22-P1, 4-cyclopropyl-6-(2-(4-fluorophenyl)-5-oxopyrrolidin-1-yl)-1,3-dimethyl-3,4-dihydropyrido[2,3-b]pyrazin-2(1H)-one] yielded an IC50 of 10 to 100 nM.

Compound `Cc1ccc(-n2c3ccccc3c(=O)n2-c2ccc3c(n2)N(C2CC2)C(C)C(=O)N3C)cn1` (single isomer, unassigned) [Example A50-P3, 6-(1-(6-methyl-pyridin-3-yl)-3-oxo-1,3-dihydro-2H-indazol-2-yl)-4-cyclopropyl-1-methyl-3-methyl-3,4-dihydropyridine [2,3-b]pyrazin-2(1H)-one] showed an IC50 of at most 10 nM. With `CC1C(=O)N(C)c2ccc(N3C(=O)c4c(cccc4[S+](C)[O-])C3c3cccnc3)nc2N1C1CC1` (single isomer, unassigned) [Example A60-P2], the IC50 was at most 10 nM. `C[C@H]1Nc2nc(N3C(=O)CCC3c3ccccc3)ccc2N(C)C1=O` (single isomer, unassigned) [Example A20-P1] gave an IC50 of 10 to 100 nM. Turning to `C[C@@H]1C(=O)N(C)c2ccc(N3C(=O)CCC3c3ccccc3)nc2N1C` (single isomer, unassigned) [Example A4-P2], the IC50 was at most 10 nM.

As to `CC1Oc2nc(-n3c(=O)c4ccccc4n3-c3ccc(Cl)cc3)ccc2N(C)C1=O` (centres unmarked) [Example A32-P3, 6-(1-(4-chlorophenyl)-3-oxo-1,3-dihydro-2H-indazol-2-yl)-1,3-dimethyl-1H-pyrido[2,3-B][1,4]oxazin-2(3H)-one], the IC50 lay within 10 to 100 nM. The same measure, in the same setting: the figure for `CC1C(=O)N(C)c2ccc(-n3c(=O)c4ccccc4n3-c3ccc(C#N)cc3)nc2N1C1CC1` (centres unmarked) [Example A27-P1, 6-(1-(4-cyanophenyl)-3-oxo-1,3-dihydro-2H-indazol-2-yl)-4-cyclopropyl-1,3-dimethyl-3,4-dihydropyrido [2,3-b]pyrazin-2(1H)-one] is at most 10 nM. In the case of `CC1C(=O)N(C)c2ccc(N3C(=O)NCC3c3ccccc3)nc2N1C1CC1` (single isomer, unassigned) [Example A18-P4, 4-cyclopropyl-1,3-dimethyl-6-(2-oxo-5-phenylimidazolidin-1-yl)-3,4-dihydropyrido[2,3-b]pyrazin-2(1H)-one], the IC50 was at most 10 nM. The same measure, in the same setting: the figure for `CC1C(=O)N(C)c2ccc(N3C(=O)c4ccccc4C3c3cccnc3)nc2N1C1CC1` (centres unmarked) [Example A36-P3, 4-cyclopropyl-1,3-dimethyl-6-(1-oxo-3-(pyridin-3-yl)isoindolin-2-yl)-3,4-dihydropyrido [3,2-b]pyrazin-2-(1H)-one] is at most 10 nM. Compound `Cc1ccc(C2c3ccccc3C(=O)N2c2cc3c(cn2)N(C)C(=O)[C@@H](C)O3)cn1` (single isomer, unassigned) [Example A113-P1] had an IC50 of 100 to 1000 nM.

The next assay relates to human NMC-derived xenograft.
Assay: not given
The following applies: human NMC-derived xenograft mouse model; cited from earlier work.
Consider `Cc1sc2c(c1C)C(c1ccc(Cl)cc1)=N[C@@H](CC(=O)OC(C)(C)C)c1nnc(C)n1-2` [JQ1], for which the “tumor squamous differentiation and growth” value is “inhibited tumor squamous differentiation and growth and caused regression”.

The values above are taken from patent publication US20210261539A1, “COMPOUND HAVING BET INHIBITORY ACTIVITY AND PREPARATION METHOD AND USE THEREFOR” (Shanghai Haihe Pharmaceutical Co., Ltd., priority 2018, published 2021).
